Patent US20200247897A1, “THERAPEUTIC ANTIBODIES BASED ON MUTATED IGG HEXAMERS” (GENMAB B.V., priority 2017, published 2020)
Like-named read-outs stand apart in the source and are kept apart here.

What was measured:
LS-411N = test: Drug combination screen (ATPlite, Synergy Score), LS-411N; format: cell-based, human
HCT 116 = test: Drug combination screen (ATPlite, Synergy Score), HCT 116
SNU-C2B = test: Drug combination screen (ATPlite, Synergy Score), SNU-C2B
DLD-1 = test: Drug combination screen (ATPlite, Synergy Score), DLD-1
SW480 = test: Drug combination screen (ATPlite, Synergy Score), SW480; format: cell-based, human
[1] = compound in combination with IgG1-hDR5-01-G56T-E430G + IgG1-hDR5-05-E430G, LS-411N, 72 hour ATPlite, 6x6 matrix
[2] = compound in combination with IgG1-hDR5-01-G56T-E430G + IgG1-hDR5-05-E430G, HCT 116, 120 hour ATPlite, 6x6 matrix
[3] = compound in combination with IgG1-hDR5-01-G56T-E430G + IgG1-hDR5-05-E430G, SNU-C2B, 72 hour ATPlite, 6x6 matrix
[4] = compound in combination with IgG1-hDR5-01-G56T-E430G + IgG1-hDR5-05-E430G, DLD-1, 120 hour ATPlite, 6x6 matrix
[5] = compound in combination with IgG1-hDR5-01-G56T-E430G + IgG1-hDR5-05-E430G, SW480, 72 hour ATPlite, 6x6 matrix

Row | SMILES | Synergy Score LS-411N (LS-411N; [1]) | Synergy Score HCT-116 (HCT 116; [2]) | Synergy Score SNU-C2B (SNU-C2B; [3]) | Synergy Score DLD-1 (DLD-1; [4]) | Synergy Score SW480 (SW480; [5]) | Synergy Score LS-411N (LS-411N) | Synergy Score HCT-116 (HCT 116) | Synergy Score SNU-C2B (SNU-C2B) | Synergy Score DLD-1 (DLD-1) | Synergy Score SW480 (SW480)
1 | Nc1cccc2c1C(=O)N(C1CCC(=O)NC1=O)C2=O (centres unmarked) [Pomalidomide] | 0 | 0 | 0.5 | 0.1 | 0 |  |  |  |  | 
2 | O=C1NC(=O)/C(=C/c2ccc3nccc(-c4ccncc4)c3c2)S1 [GSK1059615] | 0.4 | 0.6 | 0.8 | 0.4 | 1.7 |  |  |  |  | 
3 | CO[C@H]1C[C@@H]2CC[C@@H](C)[C@@](O)(O2)C(=O)C(=O)N2CCCC[C@H]2C(=O)O[C@H]([C@H](C)C[C@@H]2CC[C@@H](OC(=O)C(C)(CO)CO)[C@H](OC)C2)CC(=O)[C@H](C)/C=C(\C)[C@@H](O)[C@@H](OC)C(=O)[C@H](C)C[C@H](C)/C=C/C=C/C=C/1C [Temsirolimus] | 0.6 | 0.6 | 4.5 | 0.7 | 1.6 |  |  |  |  | 
4 | CNC(=O)c1cc(Oc2ccc(NC(=O)Nc3ccc(Cl)c(C(F)(F)F)c3)cc2)ccn1 [Sorafenib] | 6 | 0.5 | 2.9 | 2.6 | 3.9 |  |  |  |  | 
5 | C[C@@H]1C[C@H]2[C@@H]3CCC4=CC(=O)C=C[C@]4(C)[C@@]3(F)[C@@H](O)C[C@]2(C)[C@@]1(O)C(=O)CO [Dexamethasone] | 0.4 | 0 | 0.8 | 0.1 | 0 |  |  |  |  | 
6 | CC1(C)CCC(CN2CCN(c3ccc(C(=O)NS(=O)(=O)c4ccc(NCC5CCOCC5)c([N+](=O)[O-])c4)c(Oc4cnc5[nH]ccc5c4)c3)CC2)=C(c2ccc(Cl)cc2)C1 [ABT-199] | 0.1 | 0 | 0 | 0 | 0 |  |  |  |  | 
7 | Cc1ccccc1CN1C(=O)C2=C(CCN(Cc3ccccc3)C2)N2CCN=C12 [TIC10] |  |  |  |  |  | 23.3 | 2.2 | 13.1 | 15.5 | 3.4
8 | CC(=O)Nc1cccc(-n2c(=O)n(C3CC3)c(=O)c3c(Nc4ccc(I)cc4F)n(C)c(=O)c(C)c32)c1 [Trametinib] | 0.9 | 4 | 0.6 | 4.1 | 7.2 |  |  |  |  | 
9 | Cn1cnc2c(F)c(Nc3ccc(Br)cc3Cl)c(C(=O)NOCCO)cc21 [AZD6244] | 0.7 | 2.7 | 0.6 | 1.5 | 11.7 |  |  |  |  | 
10 | CC(C)(C)c1nc(-c2cccc(NS(=O)(=O)c3c(F)cccc3F)c2F)c(-c2ccnc(N)n2)s1 [Dabrafenib] | 0.5 | 0.7 | 0.5 | 2.2 | 3.1 |  |  |  |  | 
11 | COc1cccc2c1C(=O)c1c(O)c3c(c(O)c1C2=O)C[C@@](O)(C(=O)CO)C[C@@H]3O[C@H]1C[C@H](N)[C@@H](O)[C@H](C)O1 [Epirubicin] | 5.8 | 4.9 | 15.1 | 15.6 | 17.7 |  |  |  |  | 
12 | Cc1ccc(C(=O)Nc2ccc(CN3CCN(C)CC3)c(C(F)(F)F)c2)cc1C#Cc1cnc2cccnn12 [AP24534] | 2.6 | 1.4 | 1.8 | 4.3 | 3.7 |  |  |  |  | 
13 | Cn1cc(C2=C(c3cn(C4CCN(Cc5ccccn5)CC4)c4ccccc34)C(=O)NC2=O)c2ccccc21 [Enzastaurin] | 5.6 | 0.6 | 0.5 | 0.9 | 6.3 |  |  |  |  | 
